# Laboratory results as given in patent US8664379B2, “Fused heterocyclic compounds as ion channel modulators” (Gilead Sciences, Inc., priority 2008, dated 2014).
# Columns and labels:
# [1] = molecular target: wild-type human cardiac sodium channel, hNav1.5 (late sodium current) (Homo sapiens, UniProt Q14524); assay: Late INa screening assay (PatchXpress whole cell patch clamp); format: cell-based; conditions: HEK293 cells expressing hNav1.5, late INa generated with 10 μM Tefluthrin (some experiments 50 nM ATX II); for inhibition at 10 µM: HEK293, 10 μM test compound, read-out: Late INa % blk (10 μM test cmpd)
# Description: The late sodium current (Late INa) and peak sodium current (Peak INa) assays were performed on an automated electrophysiology platform, PatchXpress 7000A (MDS Analytical Technologies, Sunnyvale, Calif.), which uses the whole cell patch clamp technique to measure currents through the cell membrane of up to 16 cells at a time. The assay used an HEK293 (human embryonic kidney) cell line heterologously expressing the wild-type human cardiac sodium channel, hNav1.5, purchased from Millipore (Billerica, Mass.). No beta subunits were coexpressed with the Na channel alpha subunit. Cells were maintained with standard tissue culture procedures and stable channel expression was maintained with 400 μg/ml Geneticin in the culture medium. Cells isolated for use on PatchXpress were incubated for 5 minutes in Versene 1× and then for 2 minutes in 0.0125% Trypsin-EDTA (both at 37° C.) to ensure that 80-90% of the cells are single and not part of a cell cluster. Experiments were carried out at 24-27° C.
# For both the Late INa and Peak INa assays, series resistance compensation was set to 50% and whole-cell compensation was performed automatically. Currents were low-pass filtered at 10 kHz and digitized at 31.25 kHz. Currents through open sodium channels were automatically recorded and stored in the DataXpress2 database (MDS Analytical Technologies, Sunnyvale, Calif.). Analysis was performed using DataXpress2 analysis software and data are compiled in Excel.
# Compound stocks were routinely made in glass vials to 10 mM in dimethyl sulfoxide (DMSO). In some cases, when compounds were not soluble in DMSO, they were made in 100% ethanol. Stocks were sonicated as necessary. The extracellular solution for screening Late INa was composed of: 140 mM NaCl, 4 mM KCl, 1.8 mM CaCl2, 0.75 mM MgCl2, and 5 mM HEPES with pH adjusted to 7.4 using NaOH. The extracellular solution for screening Peak INa was composed of: 20 mM NaCl, 120 mM N-methyl-D glucamine, 4 mM KCl, 1.8 mM CaCl2, 0.75 mM MgCl2, and 5 mM HEPES with pH adjusted to 7.4 using HCl. The intracellular solution used to perfuse the inside of the cells for both the Late INa and Peak INa assays contains: 120 mM CsF, 20 mM CsCl, 5 mM EGTA, 5 mM HEPES and pH adjusted to 7.4 with CsOH. Compounds were diluted in extracellular solution to 10 μM in glass vials and then transferred to glass well plates before robotic addition to the cells. The 0Na extracellular solution used at the end of each experiment for the Late INa and Peak INa assays to measure baseline current contained: 140 mM N-methyl-D-glucamine; 4 mM KCl; 1.8 mM CaCl2; 0.75 mM MgCl2; 5 mM HEPES and pH was adjusted to 7.4 with HCl.
# For the Late INa assay, sodium channels were activated every 10 seconds (0.1 Hz) by depolarizing the cell membrane to −20 mV for 250 milliseconds (ms) from a holding potential of −120 mV. In response to a −20 mV voltage step, typical Nav1.5 sodium currents activated rapidly to a peak negative current and then inactivated nearly completely within 3-4 ms.
# All compounds were tested to determine their activity in blocking the late sodium current. Late INa current is generated by adding 10 μM Tefluthrin (pyrethroid) to the extracellular solution while recording Na currents. For some experiments, 50 nM ATX II (sea anemone toxin), another late INa activator, was used to generate the late component. Both activators generate late components that are large enough that block of the late component by compounds can be measured easily. For the purposes of the screening, late INa is defined as the mean current between 225 ms and 250 ms after stepping to −20 mV to activate Na channels. After establishing the whole cell recording configuration, late INa activators were added to each well 4 times over a 16-17 minute period so that the late component of the Na current reached a stable value. Compounds were then added (typically at 10 μM), in the presence of late INa activator, with 3 additions over the course of 7 or 8 minutes. […]
# hERG potassium channel = molecular target: T1, hERG potassium channel (Homo sapiens, UniProt Q12809); assay: hERG screening assay (PatchXpress patch clamp); format: cell-based; conditions: hERG expressed in CHO cells, peak current at -50 mV; for hERG Patch Clamp hERG % blk 1 μm: 1 μM test compound; for hERG Patch Clamp hERG % blk 10 μm: 10 μM test compound
# T1 construct: expressed in transfected cells
# Description: Compounds were screened to test their activity in blocking the hERG potassium channel. The hERG channel was heterologously expressed in a CHO (Chinese Hamster Ovary) cell line. Cells were maintained with standard tissue culture procedures and stable channel expression was maintained with 500 μg/ml G418 in the culture medium. Cells were harvested for testing on the PatchXpress automated patch clamp with Accumax (Innovative Cell Technologies, San Diego, Calif.) to isolate single cells.
# The following solutions were used for electrophysiological recordings. The external solution contained: 2 mM CaCl2; 2 mM MgCl2; 4 mM KCl; 150 mM NaCl; 10 mM Glucose; 10 mM HEPES (pH 7.4 with 1M NaOH, osmolarity). The internal solution contained: 140 mM KCl, 10 mM MgCl2, 6 mM EGTA, 5 mM HEPES, 5 mM ATP (pH adjusted to 7.25 with KOH).
# hERG channels are activated when the voltage is stepped to +20 mV from the −80 mV holding potential. During a 5 second step at +20 mV, the channels activated and then largely inactivated, so the currents were relatively small. Upon returning to −50 mV from +20 mV, hERG currents transiently became much larger as inactivation was rapidly removed and then the channel closed. The first step to −50 mV for 300 ms was used as a baseline for measuring the peak amplitude during the step to −50 mV after channel activation. The peak current at −50 mV was measured both under control conditions and after addition of compound.
# All compounds were prepared as 10 mM DMSO stocks in glass vials. Stock solutions were mixed by vigorous vortexing and sonication for about 2 minutes at room temperature. For testing, compounds were diluted in glass vials using an intermediate dilution step in pure DMSO and then further diluted to working concentrations in external solution. Dilutions were prepared no longer than 20 minutes before use.
# After achieving the whole-cell configuration, cells were monitored for 90 seconds to assess stability and washed with external solution for 66 seconds. The voltage protocol described above was then applied to the cells every 12 seconds and throughout the whole procedure. Only cells with stable recording parameters and meeting specified health criteria were allowed to enter the compound addition procedure.
# External solution containing 0.1% DMSO (vehicle) was applied to the cells first to establish the control peak current amplitude. After allowing the current to stabilize for 3 to 5 minutes, 1 μM and then 10 μM test compounds were applied. Each compound concentration was added 4 times and cells were kept in test solution until the effect of the compound reached steady state or for a maximum of 12 minutes. After addition of test compound, a positive control (1 μM Cisapride) was added—it must block >95% of the current for the experiment to be considered valid. Washout in the external solution compartment was performed until the recovery of the current reached steady state. Data were analyzed using DataXpress, Clampfit (Molecular Devices, Inc., Sunnyvale) and Origin 7 (Originlab Corp.)
# Chain of wild-type human cardiac sodium channel, hNav1.5 (late sodium current) (Q14524 whole entry): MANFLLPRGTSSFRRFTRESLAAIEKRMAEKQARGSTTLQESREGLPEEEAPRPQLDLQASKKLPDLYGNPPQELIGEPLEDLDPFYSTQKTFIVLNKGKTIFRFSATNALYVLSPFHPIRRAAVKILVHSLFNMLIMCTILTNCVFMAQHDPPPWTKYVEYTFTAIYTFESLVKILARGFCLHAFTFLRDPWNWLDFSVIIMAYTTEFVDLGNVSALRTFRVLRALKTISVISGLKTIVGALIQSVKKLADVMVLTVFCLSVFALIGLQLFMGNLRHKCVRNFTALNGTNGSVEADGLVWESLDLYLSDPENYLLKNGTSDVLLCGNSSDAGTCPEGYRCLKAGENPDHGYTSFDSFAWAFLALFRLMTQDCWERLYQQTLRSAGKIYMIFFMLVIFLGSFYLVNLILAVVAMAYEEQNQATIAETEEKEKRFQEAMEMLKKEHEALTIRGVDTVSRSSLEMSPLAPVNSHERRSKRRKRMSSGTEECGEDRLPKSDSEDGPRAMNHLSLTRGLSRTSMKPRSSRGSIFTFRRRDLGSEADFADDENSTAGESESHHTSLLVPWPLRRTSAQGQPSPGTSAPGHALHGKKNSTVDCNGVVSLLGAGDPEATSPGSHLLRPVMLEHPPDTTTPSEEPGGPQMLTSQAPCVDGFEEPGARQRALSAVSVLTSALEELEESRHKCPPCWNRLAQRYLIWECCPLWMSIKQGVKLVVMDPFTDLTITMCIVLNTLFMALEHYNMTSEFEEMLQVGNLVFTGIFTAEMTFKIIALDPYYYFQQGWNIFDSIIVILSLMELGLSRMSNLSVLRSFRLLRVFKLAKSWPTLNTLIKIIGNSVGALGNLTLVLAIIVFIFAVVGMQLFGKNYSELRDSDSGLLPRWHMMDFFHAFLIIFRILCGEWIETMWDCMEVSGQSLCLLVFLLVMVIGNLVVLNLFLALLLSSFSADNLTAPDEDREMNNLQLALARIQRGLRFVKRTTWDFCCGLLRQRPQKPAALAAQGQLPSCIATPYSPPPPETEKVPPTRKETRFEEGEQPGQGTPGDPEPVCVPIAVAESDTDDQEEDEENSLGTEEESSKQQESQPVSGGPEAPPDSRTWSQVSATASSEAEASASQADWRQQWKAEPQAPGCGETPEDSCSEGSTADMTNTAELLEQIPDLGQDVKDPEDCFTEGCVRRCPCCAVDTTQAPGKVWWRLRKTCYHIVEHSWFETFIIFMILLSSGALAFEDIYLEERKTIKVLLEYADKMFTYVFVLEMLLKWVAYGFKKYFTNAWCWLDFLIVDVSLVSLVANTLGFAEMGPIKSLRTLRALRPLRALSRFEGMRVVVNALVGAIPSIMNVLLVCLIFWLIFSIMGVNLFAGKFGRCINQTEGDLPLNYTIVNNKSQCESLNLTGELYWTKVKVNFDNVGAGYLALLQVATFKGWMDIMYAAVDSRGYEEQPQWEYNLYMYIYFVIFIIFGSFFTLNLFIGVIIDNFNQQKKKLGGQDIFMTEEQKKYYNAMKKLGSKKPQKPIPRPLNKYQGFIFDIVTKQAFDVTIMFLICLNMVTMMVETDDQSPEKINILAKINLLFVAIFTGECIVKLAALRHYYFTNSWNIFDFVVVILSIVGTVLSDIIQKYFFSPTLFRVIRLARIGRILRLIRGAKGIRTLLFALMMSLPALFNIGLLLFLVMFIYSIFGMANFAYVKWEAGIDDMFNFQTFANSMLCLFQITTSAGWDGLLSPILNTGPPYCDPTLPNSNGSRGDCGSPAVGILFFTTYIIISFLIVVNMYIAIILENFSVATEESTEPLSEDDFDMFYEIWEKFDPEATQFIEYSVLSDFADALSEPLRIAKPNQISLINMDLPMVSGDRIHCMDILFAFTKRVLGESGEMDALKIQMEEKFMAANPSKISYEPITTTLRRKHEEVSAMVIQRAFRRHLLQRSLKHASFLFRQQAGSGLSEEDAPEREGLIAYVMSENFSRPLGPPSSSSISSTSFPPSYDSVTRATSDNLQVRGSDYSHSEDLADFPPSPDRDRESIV
# T1 sequence (Q12809 whole entry): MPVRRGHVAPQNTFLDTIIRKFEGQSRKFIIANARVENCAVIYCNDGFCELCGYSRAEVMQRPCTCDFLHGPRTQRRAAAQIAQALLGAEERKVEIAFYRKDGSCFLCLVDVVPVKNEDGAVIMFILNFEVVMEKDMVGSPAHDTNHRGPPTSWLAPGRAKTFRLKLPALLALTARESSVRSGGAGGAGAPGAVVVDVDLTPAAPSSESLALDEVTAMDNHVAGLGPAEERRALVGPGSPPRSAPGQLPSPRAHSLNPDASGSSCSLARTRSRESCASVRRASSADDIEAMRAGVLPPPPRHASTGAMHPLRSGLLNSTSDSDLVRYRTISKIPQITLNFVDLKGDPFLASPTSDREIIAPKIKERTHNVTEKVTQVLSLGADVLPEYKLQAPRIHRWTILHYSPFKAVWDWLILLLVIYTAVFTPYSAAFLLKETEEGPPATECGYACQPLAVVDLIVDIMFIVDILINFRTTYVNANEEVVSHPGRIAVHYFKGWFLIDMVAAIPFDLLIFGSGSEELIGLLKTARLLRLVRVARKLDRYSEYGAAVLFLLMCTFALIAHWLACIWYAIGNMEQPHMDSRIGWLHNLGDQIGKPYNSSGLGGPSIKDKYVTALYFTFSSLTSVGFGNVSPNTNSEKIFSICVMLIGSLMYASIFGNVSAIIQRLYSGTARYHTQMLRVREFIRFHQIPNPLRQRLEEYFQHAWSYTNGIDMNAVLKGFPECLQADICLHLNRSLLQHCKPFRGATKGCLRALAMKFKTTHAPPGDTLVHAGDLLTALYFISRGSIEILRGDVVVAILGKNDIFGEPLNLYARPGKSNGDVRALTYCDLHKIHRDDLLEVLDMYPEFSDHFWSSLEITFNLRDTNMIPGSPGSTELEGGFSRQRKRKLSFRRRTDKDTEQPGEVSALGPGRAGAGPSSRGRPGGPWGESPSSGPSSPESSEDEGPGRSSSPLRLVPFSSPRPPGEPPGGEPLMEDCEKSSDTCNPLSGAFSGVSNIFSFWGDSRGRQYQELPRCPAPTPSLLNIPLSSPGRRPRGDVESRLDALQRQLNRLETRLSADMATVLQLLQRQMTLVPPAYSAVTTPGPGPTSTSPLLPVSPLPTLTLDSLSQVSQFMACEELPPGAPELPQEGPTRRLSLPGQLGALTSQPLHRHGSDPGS
SMILES,inhibition at 10 µM [1] [%],also measured
"O=C1CCc2cc(-c3ccc(F)cc3F)ccc2N1Cc1csc(-c2ccc(Cl)cc2)n1 [Compound 26, 1-{[2-(4-chlorophenyl)-1,3-thiazol-4-yl]methyl}-6-(2,4-difluorophenyl)-3,4-dihydroquinolin-2(1H)-one]",20,hERG Patch Clamp hERG % blk 1 μm (hERG potassium channel): 10%; hERG Patch Clamp hERG % blk 10 μm (hERG potassium channel): 10%
"O=C(O)CN1C(=O)CCc2cc(-c3ccc(C(F)(F)F)cc3)ccc21 [Compound 44, {2-oxo-6-[4-(trifluoromethyl)phenyl]-3,4-dihydroquinolin-1(2H)-yl}acetic acid]",,hERG Patch Clamp hERG % blk 1 μm (hERG potassium channel): 10%; hERG Patch Clamp hERG % blk 10 μm (hERG potassium channel): 10%
"CCOC(=O)CN1C(=O)CCc2cc(-c3ccc(C(F)(F)F)cc3)ccc21 [Compound 54, ethyl {2-oxo-6-[4-(trifluoromethyl)phenyl]-3,4-dihydroquinolin-1(2H)-yl}acetate]",13,
"NC(=O)c1cccc(-c2ccc3c(c2)CCC(=O)N3)c1 [Compound 6, 3-(2-oxo-1,2,3,4-tetrahydroquinolin-6-yl)benzamide]",23,
"COc1cc2c(cc1-c1ccc(Cl)cc1)CCC(=O)N2CC(=O)O [Compound 80, 2-(6-(4-chlorophenyl)-7-methoxy-2-oxo-3,4-dihydroquinolin-1(2H)-yl)acetic acid]",17,
"NC(=O)c1ccc(-c2ccc3c(c2)CCC(=O)N3)cc1 [Compound 2, 4-(2-oxo-1,2,3,4-tetrahydroquinolin-6-yl)benzamide]",16,
"O=C(O)CN1C(=O)CCc2cc(-c3cccc(F)c3)ccc21 [Compound 59, [6-(3-fluorophenyl)-2-oxo-3,4-dihydroquinolin-1(2H)-yl]acetic acid]",10,
"COc1c(-c2ccc(Cl)cc2)cc2c(c1Br)NC(=O)CC2 [Compound 78, 8-bromo-6-(4-chlorophenyl)-7-methoxy-3,4-dihydroquinolin-2(1H)-one]",34,
"COc1c(-c2ccc(Cl)cc2)cc2c(c1-c1ccc(Cl)cc1)N(CC(=O)O)C(=O)CC2 [Compound 81, 2-(6,8-bis(4-chlorophenyl)-7-methoxy-2-oxo-3,4-dihydroquinolin-1(2H)-yl)acetic acid]",30,
"CC(C)(C)OC(=O)CN1C(=O)CCc2cc(-c3ccc(C(F)(F)F)cc3)ccc21 [Compound 45, tert-butyl {2-oxo-6-[4-(trifluoromethyl)phenyl]-3,4-dihydroquinolin-1(2H)-yl}acetate]",,Late INa % blk (10 μM test cmpd) ([1]; 10 μM test compound): 64%
"N#Cc1cccc(-c2ccc3c(c2)CCC(=O)N3)c1 [Compound 41, 3-(2-oxo-1,2,3,4-tetrahydroquinolin-6-yl)benzonitrile]",12,
"NC(=O)CN1C(=O)CCc2cc(-c3ccc(F)cc3F)ccc21 [Compound 55, 2-[6-(2,4-difluorophenyl)-2-oxo-3,4-dihydroquinolin-1(2H)-yl]acetamide]",14,
"N#Cc1cc(-c2ccc3c(c2)CCC(=O)N3)ccc1F [Compound 12, 2-fluoro-5-(2-oxo-1,2,3,4-tetrahydroquinolin-6-yl)benzonitrile]",27,
"CC(C)(C)OC(=O)CN1C(=O)CCc2cc(-c3cccc(Cl)c3)ccc21 [Compound 53, tert-butyl [6-(3-chlorophenyl)-2-oxo-3,4-dihydroquinolin-1(2H)-yl]acetate]",73,
"O=C1CCc2cc(-c3ccc(F)cc3F)ccc2N1 [Compound 11, 6-(2,4-difluorophenyl)-3,4-dihydroquinolin-2(1H)-one]",54,
"O=C(CN1C(=O)CCc2cc(-c3ccc(C(F)(F)F)cc3)ccc21)N1CCOCC1 [Compound 32, 1-[2-(morpholin-4-yl)-2-oxoethyl]-6-[4-(trifluoromethyl)phenyl]-3,4-dihydroquinolin-2(1H)-one]",27,
"CC(C)(C)c1nc(CN2C(=O)CCc3cc(-c4ccc(F)cc4)ccc32)no1 [Compound 35, 1-[(5-tert-butyl-1,2,4-oxadiazol-3-yl)methyl]-6-(4-fluorophenyl)-3,4-dihydroquinolin-2(1H)-one]",69,
"O=C1CCc2cc(-c3cccc(C(F)(F)F)c3)ccc2N1 [Compound 13, 6-[3-(trifluoromethyl)phenyl]-3,4-dihydroquinolin-2(1H)-one]",70,
"O=C1CCc2cc(-c3ccc(Cl)c(C(F)(F)F)c3)ccc2N1 [Compound 10, 6-[4-chloro-3-(trifluoromethyl)phenyl]-3,4-dihydroquinolin-2(1H)-one]",66,Late INa % blk (1 μM test cmpd) ([1]; 1 μM test compound): 40%
"CCOC(=O)CN1C(=O)CCc2cc(-c3ccc(F)c(F)c3)ccc21 [Compound 23, ethyl [6-(3,4-difluorophenyl)-2-oxo-3,4-dihydroquinolin-1(2H)-yl]acetate]",33,
"O=C1CCc2cc(-c3ccc(Oc4ccccc4)cc3)ccc2N1 [Compound 38, 6-(4-phenoxyphenyl)-3,4-dihydroquinolin-2(1H)-one]",53,
